This is an account of results in patent US7772197B2, “1,3,5-triazines for treatment of viral diseases” (1,3,5-Triazines for Treatment of Viral Diseases, priority 2002, dated 2010).

The EC50 is the concentration that produces a half-maximal response. Higher therefore signals weaker potency. For orientation: AUC(0-inf) means the area under the concentration-time curve extrapolated to infinity. Lower therefore signals low exposure.

Where only a bound is given, the exact number is not on record here.

The subject of series [1] is HIV-1 RTMC, with 67N, 70R, 215F and 219Q mutations. Briefly: Sensitivity of NRTI-resistant HIV strain RTMC, MT-2 cells. The note with it: Human immunodeficiency virus 1, MT2. Type of series: cell-based. As to the method: (§1) 0.1 ml of a 3×10^5 cells/ml MT-2 cell suspension were seeded in 96-well plates at 3×10^4 cells/well. The compounds to be assayed were diluted in a separate 96-well at ten times (10×) the concentration needed for the screen. 22 μl of the 10× compounds was then added to the wells in triplicate except for six control wells, containing uninfected MT-2 cells alone (3 wells) and untreated HIV-infected MT-2 cells (3 wells). This was followed by the addition of HIV-1 at an MOI of 0.01, except for the three wells serving as the uninfected control. 0.1 ml of cRPMI was added to the uninfected well instead of virus. After the addition of virus, the 96-well plate was centrifuged at 1,200×g for two hours to enhance the adsorption of the virus by the MT-2 cells (see, e.g., O'Doherty, J. Virol. 74:10074-10080 (2000)). After the centrifugation step, the 96-well plate was then incubated in a 37° C. incubator containing 5% CO2 for three days. At the end of this time period the virus and cells were mixed by gentle pipetting followed by a 1 minute spin at 600×g to pellet the cells. The supernatant of each well was then serially diluted 1,000-fold into new 96-well plates to serve as inoculum for the next passage and assayed by ELISA for the amount of p24 produced. The next passage was performed as described above, except that the virus used to infect the cells was derived from the 1,000-fold dilution plate.
To determine if there is resistance of HIV NRTI resistant strains to mutagenic nucleoside analogues, NRTI resistant strains were grown in the presence of 5-aza-dC to determine whether the EC50 for 5-aza-dC is different from the WT strain (HIV-1 LAI). […] Growth of HIV NRTI resistant strains in the presence of the appropriate concentration of NRTI was used as a positive control.
Three HIV NRTI resistant strains (HIV-1 LAI-M184V, HIV-1 RTMDR1, with 74V, 41L, 106A and 215Y mutations, and HIV-1 RTMC, with 67N, 70R, 215F and 219Q mutations) were used to test the effectiveness of 5-aza-dC. […] Mutations include: M41L, E44D, A62V, K65R, D67N, T69DN, T69S_SS, K70R, L74V, V75I, F77L, Y115F, F116Y, V118I, Q151M, M184V, L210W, T215F and K219QE.
The effectiveness of DHAdC was tested against wild-type HIV strains and NRTI resistant HIV strains as described in Example 2. The following strains were tested: HIV-1 LAI, wild-type; HIV-I LAI-M184V-M184V mutation with resistance to lamivudine (3TC); HIV-1 RTMDR1-74V, 41L, 106A and 215Y mutations with resistance to zidovudine, didanosine, nevirapine and other non-nucleoside reverse transcriptase inhibitors; and HIV-1 RTMC-67N, 70R, 215F and 219Q with resistance to zidovudine.

The nature of series [2]: Pharmacokinetics of DHAdC base and DHAdC-palmitate in rats. Type of series: in vivo. The note with it: rat, plasma, IV.
Another series deals with HIV. Briefly: In vitro passaging assay of DHAdC. In kind it is cell-based. The note with it: 100 nM, quadruplicate. How it is done:
as §1, with “22 μl of the 10× compounds was then added to the wells in triplicate except for six control wells, containing uninfected MT-2 cells alone (3 wells) and untreated HIV-infected MT-2 cells (3 wells).” left out, “plate. […]” for “plate.”

Regarding `NC1=NC(=O)N([C@H]2C[C@H](O)[C@@H](CO)O2)CN1` [DHAdC, 1-(2-Deoxy-β-D-ribofuranosyl)-4-amino-1,2,5,6-tetrahydro-1,3,5-triazin-2-one], in series [1], a half-maximal response (EC50) required 6 µM. In series [2], this compound yielded a total exposure AUC(0-inf) of 75000 ng·h/mL. In the series with HIV, the “passage after which no infectious virus was recovered” value was 12 passage and the “passage by which p24 fell permanently below the limit of detection (4 ng/ml)” value is recorded as at most 8 passage.
